Data as given in US7868005B2, “Pyrazinyl substituted piperazine-piperidines with CXCR3 antagonist activity” (Schering Corporation, priority 2005, dated 2011).

Each molecule was assayed against T1, human CXCR3 (N-delta 4) (Homo sapiens, UniProt P49682) (assay: Human CXCR3 (N-delta 4) Scintillation Proximity Assay (SPA), [125I] IP-10 binding to Ba/F3-hCXCR3 membranes). Settings: IC50 rating, Table 1; read-out: IC50.
T1 construct: CD8 leader (N); Flag; expressed in transfected cells; membranes prepared
T1 sequence (P49682 5-368 limits assumed): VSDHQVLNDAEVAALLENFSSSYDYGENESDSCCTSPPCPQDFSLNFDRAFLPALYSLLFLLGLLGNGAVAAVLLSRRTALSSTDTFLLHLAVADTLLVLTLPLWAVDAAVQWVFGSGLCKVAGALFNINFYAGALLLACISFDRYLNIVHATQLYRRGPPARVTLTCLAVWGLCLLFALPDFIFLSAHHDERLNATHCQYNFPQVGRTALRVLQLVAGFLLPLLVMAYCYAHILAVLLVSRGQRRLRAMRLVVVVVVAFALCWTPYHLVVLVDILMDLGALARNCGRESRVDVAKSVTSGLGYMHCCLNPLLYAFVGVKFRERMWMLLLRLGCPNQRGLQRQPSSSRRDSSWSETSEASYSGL
`CC[C@H]1CN(c2ncc(C(N)=O)nc2C)CCN1C1CCN(Cc2ccc(Cl)cc2)CC1` [compound 412] gave an IC50 of less than 25 nM. Work on `CC[C@H]1CN(c2nc(N)c(C(=O)NCCO)nc2Cl)CCN1C1CCN(Cc2ccc(F)c(OCCSC)c2)CC1` [compound 413] yielded an IC50 of less than 25 nM. With `CC[C@H]1CN(c2nc(N)c(C(=O)NCCO)nc2Cl)CCN1C1CCN(Cc2ccc(OCCSC)c(F)c2)CC1` [compound 415] the IC50 was less than 25 nM. In the case of `CC[C@H]1CN(c2ncc(C(N)=O)nc2C(F)(F)F)CCN1C1CCN(C(=O)c2ccc(Cl)cc2)CC1` [compound 416], the IC50 is reported as less than 25 nM. Molecule `CC[C@H]1CN(c2ncc(C(N)=O)nc2C)[C@H](C)CN1C1CCN(C(=O)c2ccc(Cl)cc2)CC1` [compound 417] has an IC50 of less than 25 nM. `CC[C@H]1CN(c2nc(N)c(C(=O)NCCO)nc2Cl)CCN1C1CCN(C(=O)c2ccc(F)c(O)c2)CC1` [compound 419] was tested, and the IC50 was less than 25 nM. In the case of `CC[C@H]1CN(c2nc(N)c(C(=O)NC3CC3)nc2Cl)CCN1C1CCN(Cc2ccc(Cl)cc2S(C)(=O)=O)CC1` [compound 420], the IC50 is reported as less than 25 nM. For `CC[C@H]1CN(c2nc(N)c(C(=O)NCCO)nc2Cl)CCN1C1CCN(Cc2ccc(F)c(OS(C)(=O)=O)c2)CC1` [compound 421], the IC50 was less than 25 nM. Molecule `CC[C@H]1CN(c2nc(N)c(C(=O)NCCO)nc2Cl)CCN1C1CCN(Cc2ccc(Cl)cc2S(C)(=O)=O)CC1` [compound 422] has an IC50 of less than 25 nM. `CCc1nc(C(N)=O)cnc1N1CCN(C2CCN(C(=O)c3ccc(Cl)cc3)CC2)[C@@H](CC)C1` [compound 423] showed an IC50 of 25 to 100 nM. `CC[C@H]1CN(c2ncc(C(=O)NC3=NCCN3)nc2Cl)CCN1C1CCN(C(=O)c2ccc(Cl)cc2)CC1` [compound 424] gave an IC50 greater than 100 nM. `CC[C@H]1CN(c2cnc(C(N)=O)cn2)CCN1C1CCN(Cc2ccc(Cl)cc2)CC1` [compound 425] was tested, and the IC50 was greater than 100 nM. In the case of `CC[C@H]1CN(c2nc(N)c(C(=O)NCCO)nc2Cl)CCN1C1CCN(Cc2ccc(OS(C)(=O)=O)c(F)c2)CC1` [compound 426], the IC50 is reported as greater than 100 nM. For `CC[C@H]1CN(c2nc(N)c(C(=O)NCCO)nc2Cl)CCN1C1CCN(Cc2ccc(O)c(F)c2)CC1` [compound 427], the IC50 was greater than 100 nM. With `CC[C@H]1CN(c2nc(N)c(C(N)=O)nc2Cl)CCN1C1CCN(Cc2ccc(O)c(F)c2)CC1` [compound 428] the IC50 was greater than 100 nM. Molecule `CC[C@H]1CN(c2nc(N)c(C(N)=O)nc2Cl)CCN1C1CCN(Cc2ccc(Cl)cc2S(=O)(=O)NC)CC1` [compound 429] has an IC50 greater than 100 nM. In the case of `CC[C@H]1CN(c2nc(N)c(C(=O)NCCO)nc2Cl)CCN1C1CCN(C(=O)c2ccc(CS(C)(=O)=O)cc2)CC1` [compound 430], the IC50 is reported as greater than 100 nM. `CC[C@H]1CN(c2ncc(C(N)=O)nc2C)CCN1C1CCN(Cc2ccc(F)cc2)CC1` [compound 431] was tested, and the IC50 was less than 25 nM. Work on `CC[C@H]1CN(c2ncc(C(N)=O)nc2C)[C@H](C)CN1C1CCN(Cc2ccc(F)cc2)CC1` [compound 432] yielded an IC50 of less than 25 nM. `CC[C@H]1CN(c2ncc(C(N)=O)nc2C)CCN1C1CCN(Cc2ccc(C)c(F)c2)CC1` [compound 433] showed an IC50 of less than 25 nM. Molecule `CC[C@H]1CN(c2ncc(C(N)=O)nc2C)[C@H](C)CN1C1CCN(Cc2ccc(C#N)cc2)CC1` [compound 434] has an IC50 of less than 25 nM. `CC[C@H]1CN(c2ncc(C(=O)NC)nc2C)CCN1C1CCN(C(=O)c2ccc(F)cc2)CC1` [compound 435] gave an IC50 of less than 25 nM. Work on `CC[C@H]1CN(c2ncc(C(=O)NC)nc2C)CCN1C1CCN(C(=O)c2ccc(Cl)cc2)CC1` [compound 437] yielded an IC50 of less than 25 nM. `CC[C@H]1CN(c2cnc(C(N)=O)cn2)CCN1C1CCN([C@@H](CO)c2ccc(Cl)cc2)CC1` [compound 438] was tested, and the IC50 was less than 25 nM. `CC[C@H]1CN(c2ncc(C(=O)NC3CC3)nc2C)CCN1C1CCN(Cc2ccc(C)cc2)CC1` [compound 439] gave an IC50 of less than 25 nM. `CC[C@H]1CN(c2ncc(C(=O)NC3CC3)nc2C)CCN1C1CCN(Cc2ccc(F)cc2)CC1` [compound 440] showed an IC50 of less than 25 nM. For `CC[C@H]1CN(c2ncc(C(N)=O)nc2C)CCN1C1CCN(C(=O)c2ccc(Cl)cc2N)CC1` [compound 442], the IC50 was less than 25 nM. In the case of `CC[C@H]1CN(c2ncc(C(N)=O)nc2C)CCN1C1CCN([C@@H](CO)c2ccc(Cl)cc2)CC1` [compound 443], the IC50 is reported as less than 25 nM. Molecule `CC[C@H]1CN(c2ncc(C(N)=O)nc2C)CCN1C1CCN([C@H](CO)c2ccc(Cl)cc2)CC1` [compound 444] has an IC50 of less than 25 nM. `CC[C@H]1CN(c2ncc(C(N)=O)nc2C)CCN1C1CCN(Cc2ccc(C(F)(F)F)cc2)CC1` [compound 445] was tested, and the IC50 was less than 25 nM. In the case of `CC[C@H]1CN(c2ncc(C(=O)NC3CC3)nc2C)CCN1C1CCN(C(=O)c2ccc(C)cc2)CC1` [compound 446], the IC50 is reported as less than 25 nM. Molecule `CC[C@H]1CN(c2ncc(C(=O)NC3CC3)nc2C)CCN1C1CCN(C(=O)c2ccc(F)cc2)CC1` [compound 447] has an IC50 of less than 25 nM. Work on `CC[C@H]1CN(c2ncc(C(=O)NC3CC3)nc2C)CCN1C1CCN(Cc2ccc(C)c(F)c2)CC1` [compound 448] yielded an IC50 of less than 25 nM. `CC[C@H]1CN(c2ncc(C(=O)NC3CC3)nc2C)CCN1C1CCN(Cc2ccc(Cl)cc2)CC1` [compound 449] gave an IC50 of less than 25 nM. `CC[C@H]1CN(c2ncc(C(=O)NC3CC3)nc2C)CCN1C1CCN(Cc2ccc(F)c(F)c2)CC1` [compound 450] gave an IC50 of less than 25 nM. `CCNC(=O)c1cnc(N2CCN(C3CCN(C(=O)c4ccc(Cl)cc4)CC3)[C@@H](CC)C2)c(C)n1` [compound 451] was tested, and the IC50 was less than 25 nM. In the case of `CC[C@H]1CN(c2ncc(C(=O)NC)nc2C)[C@H](C)CN1C1CCN(C(=O)c2ccc(Cl)cc2)CC1` [compound 452], the IC50 is reported as less than 25 nM. In the case of `CC[C@H]1CN(c2ncc(C(N)=O)nc2C)[C@H](C)CN1C1CCN([C@@H](CO)c2ccc(Cl)cc2)CC1` [compound 453], the IC50 is reported as less than 25 nM. For `CC[C@H]1CN(c2ncc(C(=O)NC)nc2C)CCN1C1CCN(C(=O)c2ccc(Cl)c(F)c2)CC1` [compound 454], the IC50 was less than 25 nM. Molecule `CC[C@H]1CN(c2ncc(C(=O)NC)nc2C)CCN1C1CCN(C(=O)c2ccc(Cl)cc2F)CC1` [compound 455] has an IC50 of less than 25 nM. Molecule `CC[C@H]1CN(c2ncc(C(=O)NC)nc2C)CCN1C1CCN(C(=O)c2ccc(F)c(Cl)c2)CC1` [compound 456] has an IC50 of less than 25 nM. With `CC[C@H]1CN(c2ncc(C(N)=O)nc2Cl)CCN1C1CCN([C@@H](CO)c2ccc(Cl)cc2)CC1` [compound 457] the IC50 was less than 25 nM. Molecule `CC[C@H]1CN(c2ncc(C(N)=O)nc2Cl)CCN1C1CCN([C@H](CO)c2ccc(Cl)cc2)CC1` [compound 458] has an IC50 of less than 25 nM. For `CC[C@H]1CN(c2ncc(C(=O)NC3CC3)nc2C)CCN1C1CCN(C(=O)c2ccc(C)c(F)c2)CC1` [compound 459], the IC50 was less than 25 nM. Molecule `CC[C@H]1CN(c2ncc(C(=O)NC3CC3)nc2C)CCN1C1CCN(C(=O)c2ccc(Cl)cc2)CC1` [compound 460] has an IC50 of less than 25 nM. Molecule `CC[C@H]1CN(c2ncc(C(=O)NC3CC3)nc2C)CCN1C1CCN(C(=O)c2ccc(F)c(F)c2)CC1` [compound 461] has an IC50 of less than 25 nM. `CC[C@H]1CN(c2ncc(C(=O)NC3CC3)nc2C)CCN1C1CCN(C(=O)c2ccc(F)cc2F)CC1` [compound 462] was tested, and the IC50 was less than 25 nM. Molecule `CC[C@H]1CN(c2ncc(C(N)=O)nc2C)CCN1C1CCN([C@@H](C(=O)OC)c2ccc(Cl)cc2)CC1` [compound 463] has an IC50 of less than 25 nM. With `CC[C@H]1CN(c2ncc(C(N)=O)nc2C)CCN1C1CCN(C(C(=O)OC)c2ccc(Cl)cc2)CC1` (stereo partly drawn) [compound 464] the IC50 was less than 25 nM. `CC[C@H]1CN(c2ncc(C(=O)OC)nc2C)[C@H](C)CN1C1CCN([C@@H](CO)c2ccc(Cl)cc2)CC1` [compound 465] gave an IC50 of less than 25 nM. With `CC[C@H]1CN(c2ncc(C(N)=O)nc2C)[C@H](C)CN1C1CCN(Cc2ccc(OC(F)(F)F)cc2)CC1` [compound 466] the IC50 was less than 25 nM.
